Results on 3 compounds are retold here after patent publication US20240285634A1, “COMPOUND AND METHOD FOR TREATING CHEMOTHERAPY-ASSOCIATED GASTROINTESTINAL SIDE EFFECTS” (ONQUALITY PHARMACEUTICALS CHINA LTD., priority 2021, published 2024).

Structures can show the parent of a compound that is named as a salt.

The subject of experiment [1] is Balb/c mice, constipation caused by continuous administration of a chemotherapeutic agent. The experiment can be described thus: Relieving effect on constipation caused by the continuous administration of a chemotherapeutic agent (Examples 385-405). It is filed as in vivo. An excerpt: Balb/c mice were fed for 1 week, and then divided into groups. The experiment was divided into a control group, a chemotherapeutic agent group, and a group of the compound as shown in Formula I, each of which comprised 10 mice, to perform the administration experiment, for which the administration dosage, mode, time and frequency were shown in Table 6. The control group: being injected or intragastrically administered with the same solvent as that used in the group of the compound as shown in Formula I (the administration mode and time were shown in Table 6), and then being injected or intragastrically administered with the same solvent as that used in the group of the compound as shown in Formula I (the administration mode was shown in Table 6); the chemotherapeutic agent group: being injected or intragastrically administered with the same solvent as that used in the group of the compound as shown in Formula I (the administration mode and time were shown in Table 6), and then being injected or intragastrically administered with the chemotherapeutic agent (the type, administration mode, time and dosage were shown in Table 6); the group of the compound as shown in Formula I: being injected or intragastrically administered with the compound as shown in Formula I (the administration mode and time were shown in Table 6), and then being administered with the chemotherapeutic agent (the type, administration mode, time and dosage were shown in Table 6).
The feces reduction rate was calculated with reference to the method of Ji Eun Kim (Lab Anim Res. 2016 December; 32(4): 231-240.). Feces reduction rate (%)=(the control group−the chemotherapeutic agent group or the group of the compound as shown in Formula I)/the control group*100%
It is regarded as effective remission when the feces reduction rate of mice in the group of the compound as shown in Formula I is reduced compared with that in the chemotherapeutic agent group.
The feces amount of mice within 3 hours was observed and recorded every day. At the end of the experiment, the number of mice in the group of the compound as shown in Formula I whose feces reduction rate was lower than that of mice in the chemotherapeutic agent group was recorded. Table 6 lists various animal experiment combinations of chemotherapeutic agents and the compound as shown in Formula I, as well as the corresponding experimental results.

Experiment [2] has as its system Balb/c mice, diarrhea caused by continuous administration of a chemotherapeutic agent. The experiment can be described thus: Relieving effect on diarrhea caused by the continuous administration of a chemotherapeutic agent (Examples 365-384). The experiment is classed as in vivo. An excerpt: Balb/c mice were fed for 1 week, and then divided into groups. The experiment was divided into a control group, a chemotherapeutic agent group, and a group of the compound as shown in Formula I, each of which comprised 10 mice, to perform the administration experiment, for which the administration dosage, mode, time and frequency were shown in Table 5. The control group: being injected or intragastrically administered with the same solvent as that used in the group of the compound as shown in Formula I (the administration mode and time were shown in Table 5), and then being injected or intragastrically administered with the same solvent as that used in the chemotherapeutic agent group (the administration mode was shown in Table 5); the chemotherapeutic agent group: being injected or intragastrically administered with the same solvent as that used in the group of the compound as shown in Formula I (the administration mode and time were shown in Table 5), and then being injected or intragastrically administered with the chemotherapeutic agent (the type, administration mode, time and dosage were shown in Table 5); the group of the compound as shown in Formula I: being injected or intragastrically administered with the compound as shown in Formula I (the administration mode and time were shown in Table 5), and then being administered with the chemotherapeutic agent (the type, administration mode, time and dosage were shown in Table 5).
The scoring of diarrhea can refer to the method of Akinobu Kurita (Cancer Chemother Pharmacol 2000; 46:211-20.), Grade 0): normal feces; Grade 1: mild diarrhea, the stools is slightly wet and soft; Grade 2: moderate diarrhea, loose stools and mild perianal contamination; Grade 3: severe diarrhea, watery stools and accompanied by severe perianal staining (see FIG. 1). It is regarded as effective remission when the diarrhea grading of mice in the group of the compound as shown in Formula I is reduced compared with the average diarrhea grading of mice in the chemotherapeutic agent group.
The diarrhea grading of mice was observed and recorded every day. At the end of the experiment, the number of mice in the group of the compound as shown in Formula I whose diarrhea grading was lower than that of mice in the chemotherapeutic agent group was recorded. Table 5 lists various animal experiment combinations of chemotherapeutic agents and the compound as shown in Formula I, as well as the corresponding experimental results. (Relative remission rate %=the number of mice in the group of the compound as shown in Formula I whose diarrhea has been effectively relieved/the total number of mice in the group of the compound as shown in Formula I*100%. The establishment rate of diarrhea model in the chemotherapeutic agent group was 50%-80%, that is, about 5-8 of 10 mice developed diarrhea during the experiment, and there were cases of individual mice death or not developing diarrhea.)

[3] abbreviates: continuous administration of the chemotherapeutic agent for 7 days or less.

With `CN1CCN(c2ccc(Nc3ncc4cc5n(c4n3)C3(CCCCC3)CNC5=O)nc2)CC1` [Compound I hydrochloride, Trilaciclib dihydrochloride], the “Relative remission rate (%)” value in experiment [1] (Example 393, Fluorouracil (5-Fu) 100 mg/kg intraperitoneal injection once a day for 5 days, compound 150 mg/kg intraperitoneal injection once a day for 5 days, 0.5 h before the chemotherapeutic agent, experimental cycle 9 days) was 70%; in experiment [1] (Example 394, Fluorouracil (5-Fu) 100 mg/kg intraperitoneal injection once a day for 5 days, compound 150 mg/kg intraperitoneal injection once a day for 5 days, 4 h before the chemotherapeutic agent, experimental cycle 9 days), 50%; in experiment [1] (Example 395, Fluorouracil (5-Fu) 100 mg/kg intraperitoneal injection once a day for 5 days, compound 150 mg/kg intraperitoneal injection once a day for 5 days, 12 h before the chemotherapeutic agent, experimental cycle 9 days) it was 30%; in experiment [2] (Example 373, Fluorouracil (5-Fu) intraperitoneal injection 70 mg/kg once a day for 5 days, compound intraperitoneal injection 150 mg/kg single, 2 h before chemotherapeutic agent, cycle 9 days), 60%; in experiment [2] (Example 374, Fluorouracil (5-Fu) intraperitoneal injection 70 mg/kg once a day for 5 days, compound intraperitoneal injection 150 mg/kg single, 4 h before chemotherapeutic agent, cycle 9 days) it was 30%; in experiment [2] (Example 375, Fluorouracil (5-Fu) intraperitoneal injection 70 mg/kg once a day for 5 days, compound intraperitoneal injection 150 mg/kg single, 8 h before chemotherapeutic agent, cycle 9 days), 10%.
Regarding `CN1CCN(c2ccc(Nc3ncc4cc5n(c4n3)C3(CCCCC3)CNC5=O)nc2)CC1` [Compound I, Trilaciclib], the “Relative remission rate (%)” value in experiment [1] (Example 385, Fluorouracil (5-Fu) 100 mg/kg intraperitoneal injection once a day for 3 days, compound 100 mg/kg intravenous injection once a day for 3 days, 0.5 h before the chemotherapeutic agent, experimental cycle 7 days) was found to be 70%; in experiment [1] (Example 386, Fluorouracil (5-Fu) 100 mg/kg intraperitoneal injection once a day for 3 days, compound 100 mg/kg intravenous injection once a day for 3 days, 4 h before the chemotherapeutic agent, experimental cycle 7 days), 50%; in experiment [1] (Example 387, Fluorouracil (5-Fu) 100 mg/kg intraperitoneal injection once a day for 3 days, compound 100 mg/kg intravenous injection once a day for 3 days, 6 h before the chemotherapeutic agent, experimental cycle 7 days), 40%; in experiment [1] (Example 388, Fluorouracil (5-Fu) 100 mg/kg intraperitoneal injection once a day for 3 days, compound 100 mg/kg intravenous injection once a day for 3 days, 8 h before the chemotherapeutic agent, experimental cycle 7 days), 30%; in experiment [1] (Example 389, Fluorouracil (5-Fu) 100 mg/kg intraperitoneal injection once a day for 5 days, compound 100 mg/kg intraperitoneal injection once a day for 5 days, 0.5 h before the chemotherapeutic agent, experimental cycle 9 days) it was 60%; in experiment [1] (Example 390, Fluorouracil (5-Fu) 100 mg/kg intraperitoneal injection once a day for 5 days, compound 100 mg/kg intraperitoneal injection once a day for 5 days, 12 h before the chemotherapeutic agent, experimental cycle 9 days), 30%. Further, the “Relative remission rate (%)” value in experiment [1] (Example 391, Fluorouracil (5-Fu) 100 mg/kg intraperitoneal injection once a day for 5 days, compound 100 mg/kg intraperitoneal injection once a day for 5 days, 20 h before the chemotherapeutic agent, experimental cycle 9 days) came out at 10%; in experiment [1] (Example 392, Fluorouracil (5-Fu) 100 mg/kg intraperitoneal injection once a day for 5 days, compound 100 mg/kg intraperitoneal injection once a day for 5 days, 24 h before the chemotherapeutic agent, experimental cycle 9 days), 10%; in experiment [1] (Example 396, Fluorouracil (5-Fu) 100 mg/kg intravenous injection once a day for 3 days, compound 100 mg/kg oral administration once a day for 3 days, 4 h before the chemotherapeutic agent, experimental cycle 7 days) it was 40%; in experiment [1] (Example 402, Fluorouracil (5-Fu) 100 mg/kg intraperitoneal injection once a day for 7 days, compound 125 mg/kg intraperitoneal injection once a day for 7 days, 2 h before the chemotherapeutic agent, experimental cycle 10 days) it was 10%; in experiment [1] (Example 403, Fluorouracil (5-Fu) 100 mg/kg intraperitoneal injection once a day for 7 days, compound 125 mg/kg intraperitoneal injection once a day for 7 days, 4 h before the chemotherapeutic agent, experimental cycle 10 days), 10%; in experiment [1] (Example 404, Fluorouracil (5-Fu) 100 mg/kg intraperitoneal injection once a day for 7 days, compound 125 mg/kg intraperitoneal injection once a day for 7 days, 6 h before the chemotherapeutic agent, experimental cycle 10 days), 10%. Further, the “Relative remission rate (%)” value in experiment [1] (Example 405, Fluorouracil (5-Fu) 100 mg/kg intraperitoneal injection once a day for 7 days, compound 125 mg/kg intraperitoneal injection once a day for 7 days, 8 h before the chemotherapeutic agent, experimental cycle 10 days) is 0%; in experiment [2] (Example 365, Fluorouracil (5-Fu) intraperitoneal injection 70 mg/kg once a day, for 3 days, compound intravenous injection 100 mg/kg once a day, for 3 days, 2 h before chemotherapeutic agent, cycle 10 days) it was 60%; in experiment [2] (Example 366, Fluorouracil (5-Fu) intraperitoneal injection 70 mg/kg once a day, for 3 days, compound intravenous injection 100 mg/kg once a day, for 3 days, 4 h before chemotherapeutic agent, cycle 10 days), 40%; in experiment [2] (Example 367, Fluorouracil (5-Fu) intraperitoneal injection 70 mg/kg once a day, for 3 days, compound intravenous injection 100 mg/kg once a day, for 3 days, 6 h before chemotherapeutic agent, cycle 10 days), 30%; in experiment [2] (Example 368, Fluorouracil (5-Fu) intraperitoneal injection 70 mg/kg once a day, for 3 days, compound intravenous injection 100 mg/kg once a day, for 3 days, 8 h before chemotherapeutic agent, cycle 10 days), 20%; in experiment [2] (Example 369, Fluorouracil (5-Fu) intraperitoneal injection 70 mg/kg once a day, for 5 days, compound intraperitoneal injection 100 mg/kg once a day, for 5 days, 2 h before chemotherapeutic agent, cycle 9 days), 50%. Moreover, the “Relative remission rate (%)” value is 30% in experiment [2] (Example 370, Fluorouracil (5-Fu) intraperitoneal injection 70 mg/kg once a day, for 5 days, compound intraperitoneal injection 100 mg/kg once a day, for 5 days, 4 h before chemotherapeutic agent, cycle 9 days); 20% in experiment [2] (Example 371, Fluorouracil (5-Fu) intraperitoneal injection 70 mg/kg once a day, for 5 days, compound intraperitoneal injection 100 mg/kg once a day, for 5 days, 6 h before chemotherapeutic agent, cycle 9 days); 10% in experiment [2] (Example 372, Fluorouracil (5-Fu) intraperitoneal injection 70 mg/kg once a day, for 5 days, compound intraperitoneal injection 100 mg/kg once a day, for 5 days, 8 h before chemotherapeutic agent, cycle 9 days); 10% in experiment [2] (Example 376, Fluorouracil (5-Fu) intraperitoneal injection 70 mg/kg once a day, for 7 days, compound intraperitoneal injection 125 mg/kg once a day, for 7 days, 2 h before chemotherapeutic agent, cycle 10 days); 50% in experiment [2] (Example 383, Fluorouracil (5-Fu) intravenous injection 70 mg/kg once a day for 3 days, compound oral administration 100 mg/kg once a day, for 3 days, 6 h before chemotherapeutic agent, cycle 8 days); “Ineffective” in experiment [2] (Example 384, Fluorouracil (5-Fu) oral administration 50 mg/kg once a day, for 14 days, compound intraperitoneal injection 100 mg/kg once a day, for 14 days, 8 h before chemotherapeutic agent, cycle 14 days). Besides, the “relieving effects on constipation” value in experiment [1] (continuous administration of fluorouracil for less than 7 days) was “significant relieving effects”; in experiment [1] (setting [3]), “have relieving effects”. For the same compound, the “relieving effect on diarrhea” value in experiment [2] (continuous administration of fluorouracil for 14 days) is reported as “ineffective”. The “relieving effects on diarrhea” value in experiment [2] (setting [3]) is “have relieving effects”; in experiment [2] (continuous administration of the chemotherapeutic agent for less than 7 days), “significant”.
Consider `CC(C)N1CCN(c2ccc(Nc3ncc4cc5n(c4n3)C3(CCCCC3)CNC5=O)nc2)CC1` [Compound IV hydrochloride, Lerociclibdihydrochloride], for which the “Relative remission rate (%)” value was determined as 50% in experiment [1] (Example 400, Fluorouracil (5-Fu) 100 mg/kg intraperitoneal injection once a day for 3 days, compound intraperitoneal injection, 2 h before the chemotherapeutic agent, dosage cell prints 'Once a day, for 3 days', frequency cell 'Single', experimental cycle 7 days) and 30% in experiment [1] (Example 401, Fluorouracil (5-Fu) 100 mg/kg intraperitoneal injection once a day for 3 days, compound intraperitoneal injection, 12 h before the chemotherapeutic agent, dosage cell prints 'Once a day, for 3 days', frequency cell 'Single', experimental cycle 7 days).
